The text below walks through data of patent publication US9469615B2, “Quinoxalines and AZA-quinoxalines as CRTH2 receptor modulators” (Merck Sharp & Dohme Corp., priority 2010, dated 2016).

The experiment concerns the target T1, hCRTH2 (Homo sapiens, UniProt Q9Y5Y4).
T1 construct: expressed in transfected cells; host or cells: HEK (human embryonic kidney) cells expressing hCRTH2; membrane preparation
T1 sequence (Q9Y5Y4 1-395): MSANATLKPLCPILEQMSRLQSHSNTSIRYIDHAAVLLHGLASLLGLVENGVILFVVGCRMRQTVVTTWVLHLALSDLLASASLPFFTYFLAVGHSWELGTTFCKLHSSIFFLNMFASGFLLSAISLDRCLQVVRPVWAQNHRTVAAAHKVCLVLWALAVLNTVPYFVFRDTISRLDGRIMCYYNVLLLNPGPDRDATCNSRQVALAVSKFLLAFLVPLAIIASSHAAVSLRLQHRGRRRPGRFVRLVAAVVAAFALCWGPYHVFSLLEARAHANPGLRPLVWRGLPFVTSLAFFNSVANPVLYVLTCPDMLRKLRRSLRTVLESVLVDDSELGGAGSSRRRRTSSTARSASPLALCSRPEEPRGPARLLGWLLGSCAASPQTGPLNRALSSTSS
In words: Radioligand binding assay ([3H]PGD2 competition, HEK-hCRTH2 membranes). The gist of the method:
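HEK-hCRTH2 membranes, 8-20 μg; [3H]PGD2 3.0 nM; 50 mM Tris-HCl pH 7.4/1 mM EDTA/2 mM MnCl2; DMSO 1%; 60 min RT; NSB 10 μM PGD2; filtration, scintillation counting.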

Where [1] appears, read: [3H]PGD2 binding, rated A-E (Table A).

The term Ki denotes a dissociation constant, usually derived from enzyme kinetics or from competition with a known ligand. A high value points to lower affinity. With `CC1Cc2ccccc2CCN1C(=O)c1ccc2nc(-c3ccc(Cl)cc3)c(CCCCC(=O)O)nc2c1` (stereo not shown) [compound 663, 5-(3-(4-chlorophenyl)-7-(2-methyl-2,3,4,5-tetrahydro-1H-benzo[d]azepine-3-carbonyl)quinoxalin-2-yl)pentanoic acid], the Ki ([3H]PGD2 competition, Table B) is 2.1 to 20 nM.

With `O=C(O)CCCCc1nc2cc(C(=O)N3CCN(c4ccc(C(F)(F)F)cn4)CC3)ccc2nc1-c1ccc(Cl)cc1` [compound 599, 5-(3-(4-chlorophenyl)-7-(4-(5-yl)piperazine-1-carbonyl)quinoxalin-2-yl)pentanoic acid], under “[3H]PGD2 competition, Table B”, the Ki fell in the range of 0.1 to 2 nM.

`COc1ccc(C2CN(C(=O)c3ccc4nc(-c5ccccc5)c(CCCCC(=O)O)nc4c3)C2)cc1` [compound 389, 5-(7-(3-(4-methoxyphenyl)azetidine-1-carbonyl)-3-phenylquinoxalin-2-yl)pentanoic acid] had a Ki ([3H]PGD2 competition, Table B) of 0.1 to 2 nM.

Under setting [1], `O=C(O)CCCCc1nc2cc(C(=O)NCc3ccc(Cl)cc3)ccc2nc1-c1ccccc1` [15T, 5-{7-[(4-chlorobenzyl)-carbamoyl]-3-phenyl-quinoxalin-2-yl} pentanoic acid] had a Ki of 0.1 to 2 nM.

`O=C(O)CCCCc1nc2cc(C(=O)N3CC(c4ccc(F)c(F)c4)C3)ccc2nc1-c1ccc(Cl)cc1` [compound 420, 5-(3-(4-chlorophenyl)-7-(3-(3,4-difluorophenyl)azetidine-1-carbonyl)quinoxalin-2-yl)pentanoic acid] displayed an inhibitory constant (Ki) ([3H]PGD2 competition, Table B) of 0.1 to 2 nM.

For `N#CC1(c2ccccc2)CCN(C(=O)c2ccc3nc(-c4ccc(F)cc4)c(CCCCC(=O)O)nc3c2)CC1` [compound 128], under setting [1], the Ki fell in the range of 2.1 to 20 nM.

Where the note is “[3H]PGD2 competition, Table B”, `O=C(O)CCCCc1nc2cc(C(=O)N3CCC(n4cccn4)CC3)ccc2nc1-c1ccc(Cl)cc1` [compound 342, 5-(7-(4-(1H-pyrazol-1-yl)piperidine-1-carbonyl)-3-(4-chlorophenyl)quinoxalin-2-yl)pentanoic acid] returned a Ki of 2.1 to 20 nM.

The compound `C[C@H](NC(=O)c1ccc2nc(-c3ccccc3)c(OCCCC(=O)O)nc2c1)c1ccccc1` [10D, 4-[(3-phenyl-7-{[(1S)-1-phenylethyl]carbamoyl}quinoxalin-2-yl)oxy] butanoic acid] registered a Ki under setting [1] of 2.1 to 20 nM.

Under setting [1], `O=C(O)CCCC(=O)c1nc2cc(C(=O)N[C@@H]3CCCc4ccccc43)ccc2nc1-c1ccc(Cl)cc1` [compound 34, (R)-5-(3-(4-chlorophenyl)-7-((1,2,3,4-tetrahydronaphthalen-1-yl)carbamoyl)quinoxalin-2-yl)-5-oxopentanoic acid] displayed a Ki of 201 to 700 nM.

Compound `O=C(O)CCCCc1nc2cc(C(=O)N3CCN(c4nc5ccccc5o4)CC3)ccc2nc1-c1ccc(Cl)cc1` [compound 701, 5-(7-(4-(benzo[d]oxazol-2-yl)piperazine-1-carbonyl)-3-(4-chlorophenyl)quinoxalin-2-yl)pentanoic acid] showed an inhibition constant (Ki) ([3H]PGD2 competition, Table B) of 2.1 to 20 nM.

Compound `O=C(O)CCCCc1nc2cc(C(=O)N3CCN(C(=O)c4ccco4)CC3)ccc2nc1-c1ccc(Cl)cc1` [compound 592, 5-(3-(4-chlorophenyl)-7-(4-(furan-2-carbonyl)piperazine-1-carbonyl)quinoxalin-2-yl)pentanoic acid] displayed an inhibition constant (Ki) ([3H]PGD2 competition, Table B) of 2.1 to 20 nM.

`C[C@@H](NC(=O)c1ccc2nc(-c3ccccc3)c(CCCC(F)(F)C(=O)O)nc2c1)c1ccc(Cl)cc1` [compound 464, (R)-5-(7-((1-(4-chlorophenyl)ethyl)carbamoyl)-3-phenylquinoxalin-2-yl)-2,2-difluoropentanoic acid] displayed a Ki ([3H]PGD2 competition, Table B) of 20.1 to 200 nM.

On to `CC(CCCc1nc2cc(C(=O)NCc3ccc(C#N)cc3)ccc2nc1-c1ccc(F)cc1)C(=O)O` (stereo not drawn) [compound 207, 7-[[[(4-cyanophenyl)methyl]amino]carbonyl]-3-(4-fluorophenyl)-alpha-methyl-2-quinoxalinepentanoic acid], for which, under setting [1], the Ki lay in the range of 2.1 to 20 nM.

`O=C(O)CCCCc1nc2cc(C(=O)N3CCCC34CCc3cc(F)ccc34)ccc2nc1-c1ccc(Cl)cc1` (stereo not shown) [compound 656, 5-(3-(4-chlorophenyl)-7-(5-fluoro-2,3-dihydrospiro [indene-1,2′-pyrrolidin]-1′-ylcarbonyl)quinoxalin-2-yl)pentanoic acid] returned a Ki ([3H]PGD2 competition, Table B) of 2.1 to 20 nM.

Turning to `O=C(O)CCCOc1nc2cc(C(=O)NCc3cccnc3)ccc2nc1-c1ccccc1` [compound 10, 4-({3-Phenyl-7-[(pyridin-3-ylmethyl)carbamoyl]quinoxalin-2-yl}oxy)butanoic Acid], the Ki under setting [1] is 2.1 to 20 nM.

In the case of `O=C(O)CCCCc1nc2cc(C(=O)N3CCN(C4CCCCC4)C(=O)C3)ccc2nc1-c1ccc(Cl)cc1` [compound 678, 5-(3-(4-chlorophenyl)-7-(4-cyclohexyl-3-oxo-piperazine-1-carbonyl)quinoxalin-2-yl)pentanoic acid], for the setting “[3H]PGD2 competition, Table B”, the Ki is 2.1 to 20 nM.

Where the note is “[3H]PGD2 competition, Table B”, `C[C@H](CCc1nc2cc(C(=O)N[C@H](C)c3ccc(F)cc3)ccc2nc1-c1ccccc1)CC(=O)O` [compound 278, (R)-5-(7-(((R)-1-(4-fluorophenyl)ethyl)carbamoyl)-3-phenylquinoxalin-2-yl)-3-methylpentanoic acid] returned a Ki of 20.1 to 200 nM.

For `O=C(O)CCCCc1nc2cc(C(=O)N3C[C@@H]4C[C@H]3CN4Cc3ccccc3)ccc2nc1-c1ccc(Cl)cc1` [compound 630], under “[3H]PGD2 competition, Table B”, the inhibition constant Ki is 2.1 to 20 nM.

Turning to `O=C(O)CCCCc1nc2cc(C(=O)Nc3cccc(F)c3)ccc2nc1-c1ccc(F)cc1` [5N, 3-(4-fluorophenyl)-7-[[(3-fluorophenyl)amino]carbonyl]-2-quinoxalinepentanoic acid], the inhibition constant Ki under setting [1] lay in the range of 20.1 to 200 nM.

`C[C@@H](NC(=O)c1ccc2nc(-c3ccccc3)c(NCCCC(=O)O)nc2c1)c1ccc(F)cc1` [44D, (R)-4-((7-((1-(4-fluorophenyl)ethyl)carbamoyl)-3-phenylquinoxalin-2-yl)amino)butanoic acid] came in with a Ki under setting [1] of 2.1 to 20 nM.

`C[C@@H](NC(=O)c1ccc2nc(-c3ccccc3)c(NCCCC(=O)O)nc2c1)c1ccc(C#N)cc1` [44G] returned an inhibitory constant (Ki) under setting [1] of 20.1 to 200 nM.

On to `O=C(O)CCCCc1nc2cc(C(=O)N[C@H]3CC(=O)Nc4ccccc43)ccc2nc1-c1ccccc1` [compound 710, (S)-5-(7-((2-oxo-1,2,3,4-tetrahydroquinolin-4-yl)carbamoyl)-3-phenylquinoxalin-2-yl)pentanoic acid], for which, where the note is “[3H]PGD2 competition, Table B”, the Ki fell in the range of 20.1 to 200 nM.

As to `COCCn1c(=O)n(C2CCN(C(=O)c3ccc4nc(-c5ccccc5)c(CCCCC(=O)O)nc4c3)CC2)c2ccccc21` [compound 113, 7-[[4-[2,3-dihydro-3-(2-methoxyethyl)-2-oxo-1H-benzimidazol-1-yl]-1 - piperidinyl]carbonyl]-3-phenyl-2-quinoxalinepentanoic acid], the Ki under setting [1] was in the range of 2.1 to 20 nM.

Under setting [1], `O=C(O)CCCCc1nc2cc(NS(=O)(=O)Cc3ccccc3)ccc2nc1-c1ccccc1` [compound 12, 5-{7-[(benzylsulfonyl)amino]-3-phenylquinoxalin-2-yl}pentanoic Acid] showed a Ki of 201 to 700 nM.

`O=C(O)C1CC1CCc1nc2cc(C(=O)N3CCC(c4ccccc4)CC3)ccc2nc1-c1ccccc1` (single isomer, unassigned) [compound 20, 2-(2-(3-phenyl-7-(4-phenylpiperidine-1-carbonyl)quinoxaline-2-yl)ethyl)cyclopropanecarboxylic acid] showed a Ki under setting [1] of 20.1 to 200 nM.
